{
  "source": "patent US7220784B2",
  "about": "“Substituted stilbenes and their reactions” (priority 2000, dated 2007)",
  "key": {"tubulin [1]": {"system": "tubulin", "experiment": "CD IC50 (Tables 12-26, abbreviation not defined)", "format": "binding"}, "tubulin [2]": {"system": "tubulin", "experiment": "MA IC50 (Tables 12-26, abbreviation not defined)", "format": "biochemical"}, "[3]": {"system": "L1210 murine leukaemia cell line", "experiment": "MTT, L1210", "format": "cell-based", "conditions": "Mus musculus; L1210 murine leukaemia cell line (footnote a)"}},
  "note": "pIC50: −log10 of the molar value.",
  "data": [
    {"smiles": "COc1ccc(/C=C\\c2cc(O)c(OC)c(OC)c2)cc1O", "note": "[Compound 18, reference compound]", "values": [
      {"measurement": "pIC50", "setting": "tubulin [1]", "value": 4.66},
      {"measurement": "pIC50", "setting": "tubulin [2]", "value": "5.30 to 5.40"},
      {"measurement": "IC50", "setting": "[3]", "value": 0.04, "unit": "µM"}
    ]}
  ]
}
